According to paper PMC12510601, “Transcriptomic analysis reveals that pyruvate kinase potentially plays a key role in the differentiation of Spirometra mansoni proglottids by regulating the glycolysis pathway” (PLOS Neglected Tropical Diseases, 2025):

System: rSmPK1 (recombinant SmPK1)
Assay: […],4-dinitrophenylhydrazine pyruvate assay, Michaelis-Menten / Lineweaver-Burk
Assay type: biochemical, Spirometra mansoni
Conditions: pH 8.0, 37 °C

Structure (SMILES)	Km (varied PEP with ADP) [µM]	Km (varied ADP with PEP) [µM]
C=C(OP(=O)(O)O)C(=O)O [PEP]	1270	
Nc1ncnc2c1ncn2[C@@H]1O[C@H](COP(=O)(O)OP(=O)(O)O)[C@@H](O)[C@H]1O [ADP]		540
